Experimental data taken from patent US20100234459A1, “MEDICALL USE OF 3-(2,2,2,-TRIMETHYLYHDRAZINIUM) PROPIONATE HDROGEN FUMARATE AND DIHYDROGEN PHOSEPHATE” (JSC GRINDEKS, priority 2007, published 2010).

System: rabbit aorta
Experiment: Anti-atherosclerotic experiment: cholesterol-fed rabbits, aorta stained with Oil red O
Assay type: in vivo, Chinchilla rabbits
Settings: 1% cholesterol diet, 15 weeks, in drinking water; dihydrogen phosphate 165 mg/kg, hydrogen fumarate 174 mg/kg; compared with control and Meldonium dihydrate (124 mg/kg) groups
Method: Pharmacological experiment was carried out to examine the anti-atherosclerotic effect of Meldonium dihydrogen phosphate or Meldonium hydrogen fumarate in the aorta.
The experiments with Meldonium salt such as Meldonium dihydrogen phosphate or Meldonium hydrogen fumarate, were performed in 38 Chinchilla rabbits weighing 2.5-3.0 kg. The rabbits were randomly divided into 4 groups: Control (n=11), Meldonium dihydrate group (n=9) and Meldonium dihydrogen phosphate group (n=9) and Meldonium hydrogen fumarate group (n=9).
Experimental atherosclerosis, i.e. serum hyperlipidaemia and the atherosclerotic manifestations in the aorta, was induced by administering 1% cholesterol by weight together with standard diet.
The rabbits were fed with standard diet with 1% cholesterol dissolved in the sunflower seed oil (4% from the total amount of food). The diet was enriched with cholesterol as follows: 10 kg standard food for rabbits was heated to 60° C. and was mixed with 100 g warm cholesterol dissolved in 400 ml sunflower seed oil. The rabbits received 200 g of this food per day.
The experimental groups were given Meldonium dihydrate, Meldonium dihydrogen phosphate and Meldonium hydrogen fumarate, in a dose 124 mg/kg, 165 mg/kg and 174 mg/kg. The preparations were added to drinking water.
After 15 weeks the rabbits were sacrificed. Heart, aorta and liver were collected for examination. […]

Row | Structure (SMILES) | reduction of the area of atherosclerotic plaque in rabbit aorta [fold]
1 | C[N+](C)(C)NCCC(=O)O.O=P([O-])(O)O [Meldonium dihydrogen phosphate] | > 2
2 | C[N+](C)(C)NCCC(=O)O.O=C([O-])C=CC(=O)O [Meldonium hydrogen fumarate] | > 2
